In patent publication US20220175688A1, “POLYMERIC NANOPARTICLES” (Hillstream BioPharma, Inc., priority 2015, published 2022):

Assays:
MCF-7/PTX-R cells = assay: Apoptosis in PTX-resistant cells (Annexin V/PI, FLOW, caspase-3 and PARP cleavage); assay type: cell-based, Human; conditions: 100 nM, 48 h
Protocol: Cells were then stained with Annexin V/PI and analyzed by FACS. […] (see Example 9).
Analysis was performed by immunoblotting with anti-caspase-3 CF, anti-PARP CF and anti-β-Actin antibodies (see Example 9).
(§1) Accordingly, MCF-7 cells resistant to PTX were generated by exposure to increasing PTX concentrations (Table 9).

Ehrlich tumor = assay: Antitumor activity in syngeneic Ehrlich tumor model (Example 8); assay type: in vivo, Balb/c mice; conditions: 21 days treatment
Protocol: H. Analysis of antitumor activity: Mice Ehrlich tumor cells were injected subcutaneously in the hind limb of syngeneic Balb/c mice (17-22 g). Tumor bearing mice (˜150 mm^3) were divided into 9 groups (6 mice/group) and treated weekly or biweekly intraperitoneally (i.p.) with different formulations for 21 days. Tumor volume was determined by vernier caliper and calculated using the formula (A×B^2)×0.5, where A and B are the longest and shortest tumor diameters, respectively. From each group, 1 mouse was sacrificed on day 7, 14, and 21 for harvesting of tumor for histopathologal examination. The tumors were fixed in 10% formalin/saline and embedded in paraffin. Five-micrometer sections were stained with hematoxylin and eosin for further immunohistochemistry, TUNNEL and Ki67 assay. Statistical analysis of tumor volumes was performed by one-way ANOVA using Graph pad prism. Survival of the mice was determined by the Kaplan-Meier method using Prism 4.0 software (Graph Pad Software).
The in vivo antitumor efficacy and systemic toxicity of the dual-drug and single drug loaded nanoparticles were evaluated on EAT tumor model Balb/c mice. […]

MCF-7/PTX-R = assay: IC50 in PTX-resistant MCF-7 cells (Example 9); assay type: cell-based; conditions: Homo sapiens, MCF7
Text: as §1

[1] = test system: MCF-7 breast cancer cells; assay: In vitro cytotoxicity, XTT cell proliferation assay; assay type: cell-based; conditions: Homo sapiens, MCF7, 72 hrs
Protocol: (§2) D. In vitro cytotoxicity analysis: […] The cells were maintained at 37° C. and 5% CO2 atmosphere for the duration of experiments. Exponentially growing cancer cells were plated into a 96-well plate at a seeding density of 3000 cells per well and incubated for 24 hrs.

[2] = test system: MDA-MB231 breast cancer cells; assay: as above; assay type: cell-based; conditions: Homo sapiens, MDA-MB-231, 72 hrs
Protocol: as §2

[3] = Size, zeta potential, % EE of singly or dually loaded PLA72K-PEG-PPG-PEG12.5K NPs; assay type: physicochemical
Protocol: PTX loaded nanoparticles were produced using an emulsion-solvent evaporation method. Briefly, 50 mg of copolymer in 5 ml acetonitrile (ACN) and 5 mg of PTX (LC Laboratories, Boston, Mass., US) were dissolved in 100 ul ACN and added to 50 mg of PLA-PEG-PPG-PEG solution in 5 ml ACN. The resulting mixture was then added into a 20 ml aqueous phase composed of F127 in distilled water and stirred at room temperature for 6 to 8 hours to facilitate solvent evaporation and nanoparticle stabilization. PTX and NuBCP-9 peptide loaded PLA-PEG-PPG-PEG (50 mg) nanoparticles were prepared by double emulsion process. Paclitaxel was added into the dissolved PLA-PEG-PPG-PEG copolymer followed by immediate addition of peptide with a slight sonication. […]
Nanoparticles were filtered through an Amikon 30-kDa ultrafilter (Millipore, USA) and washed twice with MQ water to remove free drug/dye. […] The filtrate was collected and analyzed for free NuBCP-9 peptide by a Micro-BCA Kit (Pierce Chemicals, USA) and measured on EPOCH microplate reader (BioTek, US) at 590 nm. Similarly, free paclitaxel was measured through high performance liquid chromatography HPLC (Perkin Elmer, US) assay method, using C18 column with acetonitrile, Water, Methanol (60:35:5 volume ratio) as mobile phase. Encapsulation efficiency (EE %) of NuBCP-9 peptide/PTX was determined using the following formula:

breast cancer = conditions: first-line treatment of locally recurrent or metastatic breast cancer; cited from earlier work
[4] = Isoelectric point of peptide; assay type: physicochemical

Row | Molecule | induction of apoptosis (MCF-7/PTX-R cells) | Ki67 expression in tumor tissues (Ehrlich tumor) | IC50 (MCF-7/PTX-R) [µM] | IC50 [1] [nM] | IC50 [2] [nM] | EE % of PTX ([3]; encapsulation efficiency) [%] | progression-free survival (breast cancer) [months] | EE % of Peptide ([3]; encapsulation efficiency of NuBCP-9) [%] | isoelectric point [4] [pH]
1 | CC(=O)O[C@H]1C(=O)[C@@]2(C)[C@H]([C@H](OC(=O)c3ccccc3)[C@]3(O)C[C@H](OC(=O)[C@H](O)[C@@H](NC(=O)c4ccccc4)c4ccccc4)C(C)=C1C3(C)C)[C@]1(OC(C)=O)CO[C@@H]1C[C@@H]2O [PTX, Paclitaxel] | not | high | 1.75 | 38 | 46 | 87 | 11 | – | –
2 | FSRSLHSLL (listed as Homo sapiens) [NuBCP-9] | – | – | – | – | – | – | – | 64.5 | ~7.2
